The results in this text go back to publication PMC10933344, “A lncRNA Dleu2-encoded peptide relieves autoimmunity by facilitating Smad3-mediated Treg induction” (EMBO Reports, 2024).

The experiment relates to naive CD4+ T cells. The experiment in a line: In vitro iTreg differentiation (Foxp3+ of CD4+ cells). It counts as cell-based, mouse. The note with it: 20 μM, 72 h. As to the method: C57BL/6 mice were sacrificed, and their spleens and peripheral lymph nodes were removed and gently dissociated into single-cell suspensions. Naive T cells were isolated using the Mouse CD4 Naive T Cell Isolation Kit (BioLegend, Stem Cell, or Thermo Fisher Scientific). Flow cytometry verified that the purity (CD4^+CD25^−CD62L^hi) of the enriched subpopulation was typically higher than 95%. All T cells were cultured using RPMI-1640 medium (Gibco) supplemented with 10% heat-inactivated fetal bovine serum (Gibco), 2 mM L-glutamine (Gibco), 10,000 units/mL of penicillin, 10,000 µg/mL of streptomycin, and 25 µg/mL of Gibco Amphotericin B (Thermo Fisher Scientific), 10 mM HEPES (Gibco), 1 mM Sodium pyruvate, MEM Non-Essential Amino Acids (Life Technologies) and 55 μM β-mercaptoethanol (Gibco). 0.1 million naive CD4^+ T cells were activated with plate-coated anti-CD3 (2.5 μg/ml; BD Biosciences) and soluble anti-CD28 (2 μg/ml; BD Biosciences) antibodies. The Th1 cell differentiation condition included recombinant murine (rm)IL-12 (10 ng/ml, PeproTech) and anti-IL-4 (10 μg/ml, BioLegend). The Th17 cell differentiation condition included rmIL-6 (10 ng/ml, PeproTech), rmTGF-β1 (5 ng/ml, PeproTech), rmIL-23 (10 ng/ml, PeproTech), anti-IL-4 (5 μg/ml, BioLegend) and anti-IFN-γ (10 μg/ml, eBioscience). The inducible T regulatory cell (iTreg) differentiation condition included rmTGF-β (5 ng/ml, PeproTech). 0.1 million naive CD8^+ T cells were activated with plate-coated anti-CD3 (10 μg/ml; BD Biosciences) and plate-coated anti-CD28 (10 μg/ml; BD Biosciences) antibodies. The Tc17 cell differentiation condition included rmIL-6 (10 ng/ml, PeproTech), rmTGF-β1 (2 ng/ml, PeproTech), rmIL-23 (25 ng/ml, PeproTech), rmIL1-β (5 ng/ml, PeproTech), and anti-IFN-γ (10 μg/ml, eBioscience). The Tc1 cell differentiation condition included rmIL-2 (5 ng/ml, PeproTech) and rm IL-12 (1 ng/ml, PeproTech). Different concentrations of Dleu2-17aa and scrPEP (Genscript) were added to the T cell culture from the beginning unless specified. Cells were cultured in U-bottom 96-well plates for 72 h and detected by flow cytometry.
For in vitro mouse T cell differentiation, after 72 h of induction, cells were activated for 4–6 h at 37 °C with the Cell Stimulation Cocktail (Thermo Fisher Scientific) if intracellular cytokine staining is needed, surface markers were stained in FACS buffer (PBS containing 2% FBS) for 30 min at 4 °C protected from light. Cells were then fixed and permeabilized with the Foxp3 Staining Buffer Set (eBioscience) or BD Cytofix/Cytoperm (BD Biosciences) and were stained with fluorescent antibodies. After washing, stained cells were assayed with an LSRFortessa (BD) flow cytometer, and data were analyzed with FlowJo software. Single-cell suspensions from EAE mouse spleen or CNS (day 16 post-immunization) were derived through mechanical separation and passage through a 70-μm filter (Fisherbrand) and analyzed using similar steps. For flow cytometry, antibodies against CD4 (clone GK1.5, 1:200), CD62L (clone MEL-14, 1:200), CD44 (clone IM7, 1:200), CD25 (clone PC61.5, 1:200), IL-17A (clone eBio17B7, 1:200), IFN-γ (clone XMG1.2, 1:200), FoxP3 (clone FJK-16s, 1:200), CD184 (clone 2B11/CXCR4, 1:100), CD152 (clone BNI3 1:100) and CD357 (clone DTA-1 1:100) were from eBioscience, CD3 (clone 145-2C11, 1:200) was from Biolegend and TGFBI (1:100) were from proteintech. For Dleu2-17aa expression detection, C57BL/6 mice were sacrificed, and their spleens were removed and gently dissociated into single-cell suspensions. An Fc blocker was used to reduce potential nonspecific antibody staining caused by IgG. Surface staining was performed using monoclonal antibodies against CD45 (clone 30-F11), CD3 (clone 145-2C11), CD19 (clone SJ25C1), CD11c (clone N418), MHCII (clone M5/114.15.2), F4/80 (clone BM8) all at a dilution of 1:200 (from Biolengend) followed by fixation and permeabilization of the nuclear membrane BD Cytofix/Cytoperm (BD Biosciences). […]

As to “ARGPARRMRGGRRRRLR [scrPEP, scrambled control peptide of Dleu2-17aa]”, the “Foxp3+/ CD4+ Cells (%)” value (replicate 1) is on record as 32.8%; the “Foxp3+/ CD4+ Cells (%)” value (replicate 2) came out at 22.9%; the “Foxp3+/ CD4+ Cells (%)” value (replicate 3) is on record as 16.77%; the “Foxp3+/ CD4+ Cells (%)” value (replicate 4) worked out at 32.13%; the “Foxp3+/ CD4+ Cells (%)” value (replicate 5) is given as 22.9%; the “Foxp3+/ CD4+ Cells (%)” value (replicate 6) amounted to 10.3%. Where the note is “replicate 7”, the “Foxp3+/ CD4+ Cells (%)” value amounted to 30.6%.
